Measurements: PubChem BioAssay (NCI)
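Values below derive from 48-hour exposures of cells grown in 96-well plates, with endpoints linearly interpolated between the two concentrations bracketing the appropriate inhibition level. Abbreviation: GI50, concentration required for 50% inhibition of growth. TGI is the concentration that stops growth completely.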

How the values were obtained:
Test in all cases: growth of human tumour cells (NCI), 48 h
TK-10 renal = tested on: TK-10 renal
HL-60(TB) leukemia = tested on: HL-60(TB) leukemia
NCI-H460 lung = tested on: NCI-H460 lung
UACC-257 melanoma = tested on: UACC-257 melanoma
UACC-62 melanoma = tested on: UACC-62 melanoma
DU-145 prostate = tested on: DU-145 prostate
HOP-92 NSCLC = tested on: HOP-92 NSCLC
786-0 renal = tested on: 786-0 renal
SN12C renal = tested on: SN12C renal
HS 578T breast = tested on: HS 578T breast
MALME-3M melanoma = tested on: MALME-3M melanoma
HCT-15 colon = tested on: HCT-15 colon
COLO 205 colon = tested on: COLO 205 colon
RPMI-8226 leukemia = tested on: RPMI-8226 leukemia
HT29 colon = tested on: HT29 colon
UO-31 renal = tested on: UO-31 renal
BT-549 breast = tested on: BT-549 breast
OVCAR-3 ovarian = tested on: OVCAR-3 ovarian
NCI-H23 lung = tested on: NCI-H23 lung
HCC-2998 colon = tested on: HCC-2998 colon
NCI/ADR-RES ovarian = tested on: NCI/ADR-RES ovarian
SK-MEL-2 melanoma = tested on: SK-MEL-2 melanoma
M14 melanoma = tested on: M14 melanoma
NCI-H226 lung = tested on: NCI-H226 lung
K-562 leukemia = tested on: K-562 leukemia
IGROV1 ovarian = tested on: IGROV1 ovarian
T-47D breast = tested on: T-47D breast
CCRF-CEM leukemia = tested on: CCRF-CEM leukemia
LOX IMVI melanoma = tested on: LOX IMVI melanoma
SR leukemia = tested on: SR leukemia
PC-3 prostate = tested on: PC-3 prostate
MDA-MB-435 = tested on: MDA-MB-435
A498 renal = tested on: A498 renal
SK-OV-3 ovarian = tested on: SK-OV-3 ovarian
SF-268 CNS = tested on: SF-268 CNS
OVCAR-4 ovarian = tested on: OVCAR-4 ovarian
HCT-116 colon = tested on: HCT-116 colon
SK-MEL-5 melanoma = tested on: SK-MEL-5 melanoma
OVCAR-5 ovarian = tested on: OVCAR-5 ovarian
SF-539 CNS = tested on: SF-539 CNS
ACHN renal = tested on: ACHN renal
A549 NSCLC = tested on: A549 NSCLC
SK-MEL-28 melanoma = tested on: SK-MEL-28 melanoma
MDA-MB-231 breast = tested on: MDA-MB-231 breast
RXF 393 renal = tested on: RXF 393 renal
SF-295 CNS = tested on: SF-295 CNS
KM12 colon = tested on: KM12 colon
MOLT-4 leukemia = tested on: MOLT-4 leukemia
SW-620 colon = tested on: SW-620 colon
SNB-75 CNS = tested on: SNB-75 CNS
SNB-19 CNS = tested on: SNB-19 CNS
NCI-H522 lung = tested on: NCI-H522 lung
U251 CNS = tested on: U251 CNS
HOP-62 NSCLC = tested on: HOP-62 NSCLC
CAKI-1 renal = tested on: CAKI-1 renal
MCF7 breast = tested on: MCF7 breast
OVCAR-8 ovarian = tested on: OVCAR-8 ovarian

Work on `O=c1c(Oc2ccc(F)cc2F)cc2cnc(NC3CCOCC3)nc2n1CCCO` yielded a GI50 (TK-10 renal) greater than 25 µM, a TGI (TK-10 renal) greater than 25 µM and a GI50 (HL-60(TB) leukemia) greater than 25 µM. It also gave a TGI (HL-60(TB) leukemia) greater than 25 µM, a GI50 (NCI-H460 lung) greater than 25 µM and a TGI (NCI-H460 lung) greater than 25 µM. The GI50 (UACC-257 melanoma) was greater than 25 µM, the TGI (UACC-257 melanoma) was greater than 25 µM and the GI50 (UACC-62 melanoma) was greater than 25 µM. The TGI (UACC-62 melanoma) was greater than 25 µM, the GI50 (DU-145 prostate) was greater than 25 µM and the TGI (DU-145 prostate) was greater than 25 µM. The GI50 (HOP-92 NSCLC) was greater than 25 µM, the TGI (HOP-92 NSCLC) was greater than 25 µM and the GI50 (786-0 renal) was greater than 25 µM. For the same molecule, the TGI (786-0 renal) was greater than 25 µM, the GI50 (SN12C renal) was greater than 25 µM and the TGI (SN12C renal) was greater than 25 µM. The GI50 (HS 578T breast) was greater than 25 µM, the TGI (HS 578T breast) was greater than 25 µM and the GI50 (MALME-3M melanoma) was greater than 25 µM. The TGI (MALME-3M melanoma) was greater than 25 µM, the GI50 (HCT-15 colon) was greater than 25 µM and the TGI (HCT-15 colon) was greater than 25 µM. It also gave a GI50 (COLO 205 colon) greater than 25 µM, a TGI (COLO 205 colon) greater than 25 µM and a GI50 (RPMI-8226 leukemia) greater than 25 µM. The TGI (RPMI-8226 leukemia) was greater than 25 µM, the GI50 (HT29 colon) was greater than 25 µM and the TGI (HT29 colon) was greater than 25 µM. The GI50 (UO-31 renal) was greater than 11.3 µM, the TGI (UO-31 renal) was greater than 21.1 µM and the GI50 (BT-549 breast) was greater than 25 µM. For the same molecule, the TGI (BT-549 breast) was greater than 25 µM, the GI50 (OVCAR-3 ovarian) was greater than 25 µM and the TGI (OVCAR-3 ovarian) was greater than 25 µM. The GI50 (NCI-H23 lung) was greater than 25 µM, the TGI (NCI-H23 lung) was greater than 25 µM and the GI50 (HCC-2998 colon) was greater than 25 µM. The TGI (HCC-2998 colon) was greater than 25 µM, the GI50 (NCI/ADR-RES ovarian) was greater than 25 µM and the TGI (NCI/ADR-RES ovarian) was greater than 25 µM. It also gave a GI50 (SK-MEL-2 melanoma) greater than 25 µM, a TGI (SK-MEL-2 melanoma) greater than 25 µM and a GI50 (M14 melanoma) greater than 25 µM. The TGI (M14 melanoma) was greater than 25 µM, the GI50 (NCI-H226 lung) was greater than 25 µM and the TGI (NCI-H226 lung) was greater than 25 µM. It also gave a GI50 (K-562 leukemia) greater than 25 µM, a TGI (K-562 leukemia) greater than 25 µM and a GI50 (IGROV1 ovarian) greater than 25 µM. It also gave a TGI (IGROV1 ovarian) greater than 25 µM, a GI50 (T-47D breast) greater than 25 µM and a TGI (T-47D breast) greater than 25 µM. It also gave a GI50 (CCRF-CEM leukemia) greater than 25 µM, a TGI (CCRF-CEM leukemia) greater than 25 µM and a GI50 (LOX IMVI melanoma) greater than 25 µM. For the same molecule, the TGI (LOX IMVI melanoma) was greater than 25 µM, the GI50 (SR leukemia) was greater than 25 µM and the TGI (SR leukemia) was greater than 25 µM. For the same molecule, the GI50 (PC-3 prostate) was greater than 25 µM, the TGI (PC-3 prostate) was greater than 25 µM and the GI50 (MDA-MB-435) was greater than 25 µM. For the same molecule, the TGI (MDA-MB-435) was greater than 25 µM, the GI50 (A498 renal) was greater than 18.3 µM and the TGI (A498 renal) was greater than 25 µM. It also gave a GI50 (SK-OV-3 ovarian) greater than 25 µM, a TGI (SK-OV-3 ovarian) greater than 25 µM and a GI50 (SF-268 CNS) greater than 25 µM. The TGI (SF-268 CNS) was greater than 25 µM, the GI50 (OVCAR-4 ovarian) was greater than 14.6 µM and the TGI (OVCAR-4 ovarian) was greater than 25 µM. It also gave a GI50 (HCT-116 colon) greater than 25 µM, a TGI (HCT-116 colon) greater than 25 µM and a GI50 (SK-MEL-5 melanoma) greater than 25 µM. The TGI (SK-MEL-5 melanoma) was greater than 25 µM, the GI50 (OVCAR-5 ovarian) was greater than 25 µM and the TGI (OVCAR-5 ovarian) was greater than 25 µM. The GI50 (SF-539 CNS) was greater than 25 µM, the TGI (SF-539 CNS) was greater than 25 µM and the GI50 (ACHN renal) was greater than 25 µM. It also gave a TGI (ACHN renal) greater than 25 µM, a GI50 (A549 NSCLC) greater than 25 µM and a TGI (A549 NSCLC) greater than 25 µM. It also gave a GI50 (SK-MEL-28 melanoma) greater than 25 µM, a TGI (SK-MEL-28 melanoma) greater than 25 µM and a GI50 (MDA-MB-231 breast) greater than 25 µM. For the same molecule, the TGI (MDA-MB-231 breast) was greater than 25 µM, the GI50 (RXF 393 renal) was greater than 25 µM and the TGI (RXF 393 renal) was greater than 25 µM. The GI50 (SF-295 CNS) was greater than 25 µM, the TGI (SF-295 CNS) was greater than 25 µM and the GI50 (KM12 colon) was greater than 25 µM. The TGI (KM12 colon) was greater than 25 µM, the GI50 (MOLT-4 leukemia) was greater than 25 µM and the TGI (MOLT-4 leukemia) was greater than 25 µM. The GI50 (SW-620 colon) was greater than 25 µM, the TGI (SW-620 colon) was greater than 25 µM and the GI50 (SNB-75 CNS) was 24.4 µM. It also gave a TGI (SNB-75 CNS) greater than 25 µM, a GI50 (SNB-19 CNS) greater than 25 µM and a TGI (SNB-19 CNS) greater than 25 µM. It also gave a GI50 (NCI-H522 lung) greater than 25 µM, a TGI (NCI-H522 lung) greater than 25 µM and a GI50 (U251 CNS) greater than 25 µM. For the same molecule, the TGI (U251 CNS) was greater than 25 µM, the GI50 (HOP-62 NSCLC) was greater than 25 µM and the TGI (HOP-62 NSCLC) was greater than 25 µM. The GI50 (CAKI-1 renal) was greater than 25 µM, the TGI (CAKI-1 renal) was greater than 25 µM and the GI50 (MCF7 breast) was greater than 25 µM. It also gave a TGI (MCF7 breast) greater than 25 µM, a GI50 (OVCAR-8 ovarian) greater than 25 µM and a TGI (OVCAR-8 ovarian) greater than 25 µM.
